# Measured values reported in US12636366B2, “Ruthenium (II) complexes and conjugates thereof for use as photosensitizer agent in photodynamic therapy” (Paris Sciences et Lettres, priority 2019, dated 2026).
# Assay: In vivo biodistribution in healthy BALB/c mice (ruthenium by ICP-MS)
# Set-up: species or system mouse
# Description: Twenty four, 8 week old healthy BALB/c female mice were used in this study. 0.015 mg/ml solution of complex 6 was prepared in Milli-Q water and filtrated (0.2 μm cellulose acetate membrane, VWR). For the introduction of solution of complex 6, IV injection was used (300 μl per mouse). Organ samples, including brain, liver, spleen, kidneys and lung, were collected from treated mice after 2 h, 6 h and 24 h post-injection. Each time six mice were sacrificed. Remaining six animals were used as a control.
# For these experiments, we have decided to use the chloride salt of the complex 6 to improve its solubility. The time-dependent biodistribution of this compound in different organs was determined in healthy 8-week-old BALB/c mice according to the above-described method. The amount of ruthenium in the tested samples was assessed using Inductive Coupled Plasma Mass-Spectrometry (ICP-MS). […] After 24 h, the amount of ruthenium in the liver decreased. This is a very promising result that could indicate that complex 6 is metabolized by the liver in living organisms.
substance,measurement,setting,value
"(4,4′-Dimethyl-2,2′-bipyridine)bis(4,7-diphenyl-1,10-phenanthroline)ruthenium(II) hexafluorophosphate [Compound 6]","Levels of Ru in harvested organs (brain, liver, spleen, kidneys, lung)","IV injection, 6 h post injection, chloride salt",only liver had clearly increased levels of Ru
same,Amount of ruthenium in the liver,"IV injection, after 24 h, chloride salt",decreased
same,Behaviour of treated animals,"IV injection, chloride salt","behave normally, without signs of pain, stress or discomfort"
same,"Blood analysis, immune response compared to untreated control",after 24 h treatment,no sign of immune response
